“Also recorded” adds a separate entry of the source.
What was measured:
[1] = test system: HeLa cells; assay: ER expansion visualization by KDEL immunostaining; assay type: cell-based, human; details: tannic acid 30 μM 24 h with YTK1105 2.5 μM 5 h or rapamycin 2 μM 18 h, FIGS. 5H, 5I
Procedure: FIG. 5H illustrates the immunostaining results of KDEL signals in HeLa cells treated with or without tannic acid (30 μM, 24 h) and with YTK1105 (2.5 μM, 5 h) or rapamycin (2 μM, 18 h) (scale bar, 10 μm),
To observe cellular localization of proteins, cells were cultured on cover slips coated with poly-L-lysine (Sigma). The cells were fixed with 4% paraformaldehyde in PBS (pH 7.4) for 15 min at room temperature and washed three times with PBS for 5 min. The cells were permeabilized with 0.5% Triton X-100 in PBS solution for 15 min and washed three times with PBS for 5 min. The cells were blocked with 2% BSA in PBS solution for 1 h at room temperature. After blocking, the cells were incubated overnight at 4° C. with a primary antibody diluted in 2% BSA/PBS solution. […] Confocal images were taken by a laser scanning confocal microscope 510 Meta (Zeiss) and analyzed by Zeiss LSM Image Browser (ver. 4.2.0.121).
Using confocal microscopy of cells analyzed by immunocytochemistry, ER expansion was visualized by considered when KDEL- or calnexin-labelled ER occupied more than 80% of cell area. Furthermore, the ER area was calculated by ImageJ (NIH, Bethesda, v1.52) and the background threshold was manually defined and set for all images. The ER area was calculated and marked from the total cell area as a fraction after borders of each cell were set.

[2] = test system: HeLa cells; assay: Western blotting of ER stress and apoptosis in tannic acid-treated cells; assay type: cell-based, human; details: tannic acid 30 μM 24 h, YTK1105 5 μM 9 h, HCQ 10 μM 24 h, FIG. 5G
Procedure: FIG. 5G illustrates the Western blotting analysis results of HeLa cells treated with HCQ (10 μM, 24 h), YTK1105 (5 μM, 9 h), or both in the presence or absence of tannic acid (30 μM, 24 h),
(§1) Cell pellets were washed with phosphate-buffered saline (PBS) and lysed in an SDS-based sample buffer (277.8 mM Tris-HCl, pH 6.8, 4.4% LDS, 44.4% (v/v) glycerol) with beta-mercaptoethanol. Alternatively, cell pellets or protein supernatants were lysed in a 5× Laemmli sample buffer (SDS-based sample buffer). Using SDS-PAGE, whole cell lysates were separated and transferred onto polyvinylidene difluoride membranes at 100 V for 2 h at 4° C. Subsequently, the membrane was blocked with 4% skim milk in PBS solution for 30 min at room temperature and incubated overnight with primary antibodies (see Reference Example 4), followed by incubation with host-specific HRP-conjugated secondary antibodies (Jackson laboratory) (1:10000 dilution). For signal detection, a mixture of ECL solution (Thermo Fisher Scientific) was applied onto the membrane and captured using X-ray films.

[3] = test system: TRIM13; assay: Autophagy flux assay of TRIM13-flag with bafilomycin A1; assay type: cell-based, human; details: HeLa TRIM13-flag, 2.5 μM 4 h, with or without bafilomycin A1 200 nM 6 h; FIG. 11M
Procedure: FIG. 11M illustrates the Western blotting results of HeLa cells transfected with TRIM13-flag or negative control empty vector (EV), treated with YOK1104 (2.5 μM, 4 h), and treated with or without bafilomycin A1 (200 nM, 6 h),
as §1

[4] = test system: TRIM13; assay: In vivo oligomerization assay of TRIM13-flag (non-reducing SDS-PAGE); assay type: cell-based, human; details: HEK293T, MG132 2 μM 24 h, YOK1104 2.5 μM 4 h; FIG. 5L
Procedure: FIG. 4H illustrates the in vivo oligomerization assay results of TRIM13-flag in HEK293T cells treated with HCQ (10 μM, 24 h), tannic acid (30 μM, 24 h), or both,
FIG. 5L illustrates the In vivo oligomerization assay results of TRIM13-flag in HEK293T cells treated with MG132 (2 μM, 24 h) and with or without YOK1104 (2.5 μM, 4 h).
HEK293T cells were transfected with TRIM13-flag using Lipofectamine 2000 and treated with hydroxychloroquine (Sigma) for 24 h. To lyse the cells, the cells were subjected to a cycle of freezing/thawing and centrifuged at 13,000 g for 10 min after 30 min incubation on ice for supernatant collection. Protein concentration was measured using the Pierce BCA Protein Assay Kit (Thermo Fisher Scientific). Next, a non-reducing 4×LDS sample buffer was added to the sample lysate and followed by boiling at 100° C. for 10 min. The samples were loaded on a 3% stacking and 8% separating SDS-PAGE. Immunoblotting assays were performed using an anti-Flag antibody (Sigma) to visualize the oligomeric complexes of TRIM13.

[5] = biological target: T1, TRIM13-p62 complex (Homo sapiens, UniProt Q13501); assay: Co-IP with autophagy flux analysis using TRIM13 pulldown; assay type: cell-based; details: HEK293T p62-myc + TRIM13-flag, YOK1104 2.5 μM 4 h, HCQ 10 μM 24 h; FIG. 5K
T1 construct: PCR amplification of a full-length human p62 cDNA fragment; expressed in transfected cells; host or cells: HEK293T
T1 sequence (Q13501 whole entry, the tested form may be a part): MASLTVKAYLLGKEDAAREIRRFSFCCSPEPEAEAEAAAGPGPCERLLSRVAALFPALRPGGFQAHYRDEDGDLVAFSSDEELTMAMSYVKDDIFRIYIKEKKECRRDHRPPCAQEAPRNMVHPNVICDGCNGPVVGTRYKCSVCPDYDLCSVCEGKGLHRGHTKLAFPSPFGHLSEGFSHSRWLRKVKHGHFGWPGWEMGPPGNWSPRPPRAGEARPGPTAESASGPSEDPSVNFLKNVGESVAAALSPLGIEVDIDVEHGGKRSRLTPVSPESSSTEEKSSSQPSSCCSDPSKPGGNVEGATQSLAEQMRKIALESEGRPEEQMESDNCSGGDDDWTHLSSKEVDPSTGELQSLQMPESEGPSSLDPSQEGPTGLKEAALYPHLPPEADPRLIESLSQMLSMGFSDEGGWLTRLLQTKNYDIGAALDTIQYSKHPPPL
T1 sequence (O60858 whole entry partner, the tested form may be a part): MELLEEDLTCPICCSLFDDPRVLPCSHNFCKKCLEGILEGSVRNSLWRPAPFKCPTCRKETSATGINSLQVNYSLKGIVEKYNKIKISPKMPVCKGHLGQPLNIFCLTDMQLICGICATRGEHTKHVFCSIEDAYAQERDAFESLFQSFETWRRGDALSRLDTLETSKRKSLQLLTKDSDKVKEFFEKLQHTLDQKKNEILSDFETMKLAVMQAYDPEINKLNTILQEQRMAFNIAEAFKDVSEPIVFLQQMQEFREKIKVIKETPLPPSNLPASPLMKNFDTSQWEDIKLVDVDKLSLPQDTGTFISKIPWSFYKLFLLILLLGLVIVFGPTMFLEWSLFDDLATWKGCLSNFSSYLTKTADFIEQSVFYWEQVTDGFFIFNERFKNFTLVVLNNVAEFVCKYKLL
Procedure: FIG. 4I illustrates the Co-IP assay results in HEK293T cells treated with HCQ (10 μM, 24 h), tannic acid (30 μM, 24 h), or both, and co-transfected (24 h) with p62-myc and TRIM13-flag,
FIG. 5K illustrates the Co-IP assay results in HEK293T cells co-transfected with p62-myc and TRIM13-flag (24 h) or transfected with negative control empty vector (EV) and treated with HCQ (10 μM, 24 h), YOK1104 (2.5 μM, 4 h), or both, and
To test protein interaction, co-immunoprecipitation assays were performed. For exogenous co-IP, HEK293T cells were transfected with recombinant p62, BiP, TRIM13, reticulophagy regulator 1 (FAM134B), reticulon 3 (RTN3) or ATZ (Z variant E342K) using Lipofectamine 2000. The cell pellets were scraped and pelleted by centrifugation, resuspended and lysed in an immunoprecipitation buffer (IP buffer) [50 mM Tris-HCl pH 7.5, 150 mM NaCl, 0.5% Triton X-100, 1 mM EDTA, 1 mM phenylmethylsulfonyl fluoride (PMSF; Roche) and protease inhibitor cocktail (Sigma)] on a rotor at 4° C. for 30 min. Next, the supernatant and remaining pellets were passed through a 26-gauge 1 mL syringe 15 times and centrifuged at 13,000 g at 4° C. and collected for the supernatant, to which normal mouse IgG (Santa Cruz) and Protein A/G-Plus agarose beads (Santa Cruz) were added to preclear the lysate on a rotor at 4° C. overnight. The cell lysate was then incubated with M2 FLAG-affinity Gel agarose beads (Sigma) on a rotor at 4° C. for 3 h. The gel beads were washed four times with IP buffer, resuspended in 2× Laemmli Sample Buffer, separated by SDS-PAGE and analyzed by immunoblotting with specified antibodies.

[6] = test system: HEK293T cells; assay: Transmission electron microscopy of treated cells; assay type: cell-based, human; details: 2.5 μM, 6 h vs DMSO, FIG. 5E
Procedure: FIG. 5E is a transmission electron microscopy image of HEK293T cells treated with YOK1104 (2.5 μM, 6 h) or DMSO (control), where arrows indicate autolysosomes and asterisks indicate ER fragments inside autolysosomes (scale bars, 500 nm (1st & 2nd column), 200 nm (3rd column)),
For conventional transmission electron microscopy, HEK293T cells were treated with 2.5 μM YOK1104 for 6 h, scraped from culture dish and pelleted by centrifugation. The pellets were resuspended in 2.5% glutaraldeyhyde in 0.1 M sodium cacodylate buffer (pH 7.4) (Electron Microscopy Sciences) for overnight at 4° C. The fixative was replaced by a cacodylate buffer for the last 6 h, after which the cells were embedded in Epon resin. Subsequently, the cells were cut into 55-nm sections and stained with uranyl acetate and lead citrate using the Reichert Ultracut S Ultramicrotome (Leica Microsystems) and FEI Vitrobot Mark IV (Thermo Scientific), respectively. The cell sections were observed using the 200 kV transmission electron microscope FEI Tecnai G2-F20 (Thermo Scientific).

[7] = test system: BiP, PDI, TRIM13; assay: Immunoblotting of ER proteins under proteotoxic ER stress; assay type: cell-based, human; details: HeLa, MG132 2 μM 24 h, YOK1104 2.5 μM 4 h; FIG. 5F
Procedure: FIG. 5F illustrates the immunoblotting analysis results of HeLa cells treated with MG132 (2 μM, 24 h), YOK1104 (2.5 μM, 4 h), or both,
as §1

| Structure (SMILES) | ER morphology (swelling), KDEL signals [1] | rescue from ER stress and apoptosis [2] | autophagic degradation of TRIM13 [3] | degradation of oligomeric vs monomeric species of TRIM13 [4] | autophagic degradation of the TRIM13-p62 complex [5] | delivery of ER compartments to autolysosomes; autophagosomes and autolysosomes by transmission electron microscopy [6] | degradation of BiP, PDI and TRIM13 following up-modulation by proteotoxic ER stress [7] |
| --- | --- | --- | --- | --- | --- | --- | --- |
| Cl.OCCNCc1ccc(OCc2ccccc2)c(OCc2ccccc2)c1 [YTK1105, 2-((3,4-bis(benzyloxy)benzyl)amino)ethan-1-ol hydrochloride] | readily restored | rescued tannic acid-treated cells from ER stress and apoptosis in an autophagy-dependent manner | – | – | – | – | – |
| CC(C)NC[C@@H](O)COc1ccc(OCc2ccccc2)c(OCc2ccccc2)c1 [YOK1104, (R)-1-(3,4-bis(benzyloxy)phenoxy)-3-(isopropylamino)propan-2-ol] | – | – | drove TRIM13 to autophagic degradation | selectively induced the degradation of oligomeric species but not that of monomeric species of TRIM13 | enhanced autophagic degradation of the TRIM13-p62 complex | readily exhibited an abundance of autophagosomes and autolysosomes; also recorded: displayed the accumulation of ER fragments within their interior | readily facilitated the degradation of BiP and PDI as well as TRIM13 |
